# Test results: patent publication US20250051321A1, “TRICYCLIC DERIVATIVE AND PREPARATION METHOD THEREFOR AND APPLICATION THEREOF” (SHANGHAI JEMINCARE PHARMACEUTICAL CO., LTD., priority 2021, published 2025)
# Read-outs that look alike come from different tables or passages of the source.
# Test system: plasma LPA 18:1 and LPA 18:2
# Assay: Human plasma ex vivo assay (LPA 18:1 / 18:2 by LC-MS/MS)
# Assay type: biochemical
# Conditions: 37° C., 2 hours
# Description: The collected plasma was centrifuged at 4000 rpm for 15 minutes at 4° C. The supernatant was aliquoted into a 96-well plate (25 μL per well), sealed, and frozen at −80° C. for further use.
# LPA 17:0 powder was dissolved in a mixed solution of water: isopropanol: formic acid (1:1:1) to a final concentration of […]. The mixture was aliquoted and frozen at −20° C.
# 1 volume of formic acid was added to 1000× methanol, mixed well, and stored at 4° C. a) The 96-well plate containing frozen plasma was removed from the −80° C. freezer and thawed on ice at room temperature. b) 6 μL of 50× LPA 17:0 (internal standard) and 264 μL of 0.1% FA were added to a clean well of the 96-well plate; the final concentration of LPA 17:0 (internal standard) was 50 nM. c) 6× compound was 1:3 serially diluted to a total of 8 concentrations, and 5 μL of the compound per well was added to the 96-well plate containing plasma. The maximum final concentration of the compound was 10 μM, and the final concentration of DMSO was 0.1%. The plate was centrifuged at 300 rpm for 30 seconds. The DMSO control sample reacted for 0 hours was used as the minimum value (Min), and the DMSO control sample reacted for 2 hours was used as the maximum value (Max). […]
# d) The DMSO sample reacted for 0 hours was rapidly transferred to 0.1% FA solution containing the internal standard in step b) to terminate the reaction and precipitate plasma proteins. e) The 96-well plate containing plasma and compounds was rapidly incubated in a 37° C. incubator for 2 hours. After the incubation, 6 μL of 10× LPA 17:0 and 264 μL of 0.1% FA were added to each well to terminate the reaction and precipitate plasma proteins. […]
# f) All the samples were mixed well with a pipette, and centrifuged at 4000 rpm for 10 minutes at 4° C. 150 μL of the supernatant was added to a 96-well U-bottom plate (Thermo 267245), sealed with silica gel, and then loaded. The contents of LPA 18:1 and LPA 18:2 in the samples were detected by LC-MS/MS system.
# LPA 18:1(or 18:2) relative content=LPA 18:1(or 18:2) peak area/LPA 17:0 peak area Percentage reduction (%) in plasma LPA18:1(or 18:2)=(Max−X)/(Max−Min)*100 Max: LPA 18:1 (or 18:2) relative content of the DMSO sample reacted for 2 hours Min: LPA 18:1 (or 18:2) relative content of the DMSO sample reacted for 0 hours X: LPA 18:1 (or 18:2) relative content of the sample after compound treatment for 2 hours The IC50 of the compounds was calculated by fitting a nonlinear regression through percentage reduction in plasma LPA 18:1 (or 18:2) and log value of compound concentration using the software GraphPad Prism 8.
# Y=Bottom+(Top−Bottom)/(1+10^((Log IC50−X)*Hill Slope))
# [1] = LPA 18:1, read-out: Human plasma ex vivo assay IC50 (18:1 LPA)
# [2] = LPA 18:2, read-out: Human plasma ex vivo assay IC50 (18:2 LPA)
SMILES,IC50 [1] [nM],IC50 [2] [nM]
CN(c1nc(-c2ccc(F)cc2)c(C#N)s1)c1c2c(nc3c(F)cc(N4CC5(CN(C(=O)CN6CC[C@@H](O)C6)C5)C4)cc13)C(O)CC2 (stereo partly shown) [Example E27],287,314
CN(c1nc(-c2ccc(F)cc2)c(C#N)s1)c1c2c(nc3c(F)cc(N4CC5(CN(C(=O)C6CCOC6=O)C5)C4)cc13)C(O)CC2 (stereo not shown) [Example E56],499,440
CN(c1nc(-c2ccc(F)cc2)c(C#N)s1)c1c2c(nc3ccc(N4CC5(CN(C(=O)C(C)(C)O)C5)C4)nc13)CC2 [Example C24],232,221
CN(c1nc(-c2ccc(F)cc2)c(C#N)s1)c1c2c(nc3c(F)cc(N4CC5(CN(C(=O)C6(C)CCOC6)C5)C4)cc13)C(O)CC2 (stereo not shown) [Example E59],240,405
CN(c1nc(-c2ccc(F)cc2)c(C#N)s1)c1c2c(nc3c(F)cc(N4CC5(CN(CC(=O)N6CC[C@@H](O)C6)C5)C4)cc13)C(O)CC2 (stereo partly shown) [Example E31],222,164
CN(c1nc(-c2ccc(F)cc2)c(C#N)s1)c1c2c(nc3c(F)cc(N4CC5(CN(C(=O)[C@@H]6CCCN6C)C5)C4)cc13)C(O)CC2 (stereo partly shown) [Example E51],348,850
CN(c1nc(-c2ccc(F)cc2)c(C#N)s1)c1c2c(nc3c(F)cc(N4CC5(CN(C(=O)[C@H]6CCCN6C)C5)C4)cc13)C(O)CC2 (stereo partly shown) [Example E50],583,546
CC(C)C(=O)N1CC2(C1)CN(c1cc(F)c3nc4c(c(N(C)c5nc(-c6ccc(F)cc6)c(C#N)s5)c3c1)CCC4O)C2 (stereo not shown) [Example E43],654,737
CN(c1nc(-c2ccc(F)cc2)c(C#N)s1)c1c2c(nc3c(F)cc(N4CC5(CCN(CC(=O)N6CC(O)C6)CC5)C4)cc13)C(O)CC2 (stereo not shown) [Example E45],584,356
CN(c1nc(-c2ccc(F)cc2)c(C#N)s1)c1c2c(nc3c(F)cc(N4CCN(CC(=O)N5CC[C@H](O)C5)CC4)cc13)C(O)CC2 (stereo partly shown) [Example E41],305,295
CN(c1nc(-c2ccc(F)cc2)c(C#N)s1)c1c2c(nc3c(F)cc(N4CC5(CN(C(=O)C(C)(C)O)C5)C4)cc13)C(C)(O)CC2 (stereo not shown) [Example E35],301,393
"Cc1cc(N2CC3(CN(C(=O)C(C)(C)O)C3)C2)nc2c(N(C)c3nc(-c4ccc(F)cc4)c(C#N)s3)c3c(nc12)[C@H](O)CC3 (single isomer, unassigned) [Example E32-b]",373,489
CN(c1nc(-c2ccc(F)cc2)c(C#N)s1)c1c2c(nc3c(F)cc(N4CC5(CN(C(=O)CN6CC(O)C6)C5)C4)cc13)C(O)CC2 (stereo not shown) [Example E47],437,409
"CN(c1nc(-c2ccc(F)cc2)c(C#N)s1)c1c2c(nc3c(F)cc(N4CC5(CN(C(=O)[C@@H]6CCCO6)C5)C4)cc13)[C@@H](O)CC2 (single isomer, unassigned) [Example E54-a]",725,483
CN(c1nc(-c2ccc(F)cc2)c(C#N)s1)c1c2c(nc3c(F)cc(N4CC5(CN(C(=O)CN6CC[C@H](O)C6)C5)C4)cc13)C(O)CC2 (stereo partly shown) [Example E28],298,271
CN(c1nc(-c2ccc(F)cc2)c(C#N)s1)c1c2c(nc3c(F)cc(N4CC5(CN(C(=O)C(C)(C)O)C5)C4)cc13)C(=O)CC2 [Example E36],371,308
CN1CCC(F)(C(=O)N2CC3(C2)CN(c2cc(F)c4nc5c(c(N(C)c6nc(-c7ccc(F)cc7)c(C#N)s6)c4c2)CCC5O)C3)C1 (stereo not shown) [Example E42],412,469
"Cc1cc(N2CC3(CN(C(=O)C(C)(C)O)C3)C2)nc2c(N(C)c3nc(-c4ccc(F)cc4)c(C#N)s3)c3c(nc12)[C@](C)(O)CC3 (single isomer, unassigned) [Example E25-a]",372,366
CN(c1nc(-c2ccc(F)cc2)c(C#N)s1)c1c2c(nc3c(F)cc(N4CC5(CN(CC(=O)N6CC(C)(O)C6)C5)C4)cc13)C(O)CC2 (stereo not shown) [Example E44],293,296

SMILES,IC50 [1] [nM],IC50 [2] [nM]
CN(c1nc(-c2ccc(F)cc2)c(C#N)s1)c1c2c(nc3c(F)cc(N4CC5(CN(CC(=O)N6CC(O)C6)C5)C4)cc13)C(O)CC2 (stereo not shown) [Example E57],183,171
CN(c1nc(-c2ccc(F)cc2)c(C#N)s1)c1c2c(nc3c(F)cc(N4CC5(CN(C(=O)[C@H]6CCCO6)C5)C4)cc13)C(O)CC2 (stereo partly shown) [Example E61],583,839
CN(c1nc(-c2ccc(F)cc2)c(C#N)s1)c1c2c(nc3c(F)cc(N4CC5(CN(C(=O)C6CC(O)C6)C5)C4)cc13)C(O)CC2 (stereo not shown) [Example E58],263,271
"CN(c1nc(-c2ccc(F)cc2)c(C#N)s1)c1c2c(nc3c(F)cc(N4CC5(CN(C(=O)C(C)(C)O)C5)C4)cc13)[C@@](C)(O)CC2 (single isomer, unassigned) [Example E35-a]",388,284
CN(c1nc(-c2ccc(F)cc2)c(C#N)s1)c1c2c(nc3c(F)cc(N4CC5(CN(C(=O)C6CCC(=O)O6)C5)C4)cc13)C(O)CC2 (stereo not shown) [Example E62],332,576
CN(c1nc(-c2ccc(F)cc2)c(C#N)s1)c1c2c(nc3c(F)cc(N4CC5(CN(C(=O)C(C)(C)O)C5)C4)nc13)C(O)CC2 (stereo not shown) [Example E65],369,496
CN(c1nc(-c2ccc(F)cc2)c(C#N)s1)c1c2c(nc3c(F)cc(N4CC5(CN(C(=O)C6CC(=O)OC67CCCC7)C5)C4)cc13)C(O)CC2 (stereo not shown) [Example E49],494,576
CC(C(=O)N1CC(O)C1)N1CCN(c2cc(F)c3nc4c(c(N(C)c5nc(-c6ccc(F)cc6)c(C#N)s5)c3c2)CCC4O)CC1 (stereo not shown) [Example E33],323,154
CN(c1nc(-c2ccc(F)cc2)c(C#N)s1)c1c2c(nc3c(F)cc(N4CC5(CN(C(=O)C6CCCC6)C5)C4)cc13)C(O)CC2 (stereo not shown) [Example E60],462,448
CN(c1nc(-c2ccc(F)cc2)c(C#N)s1)c1c2c(nc3c(F)cc(N4CC5(CN(C(=O)CO)C5)C4)cc13)C(O)CC2 (stereo not shown) [Example E39],317,398
"CCc1nc2c(C)cc(N3CCN(CC(=O)N4CC(O)C4)CC3)cn2c1N(C)c1nc(-c2ccc(F)cc2)c(C#N)s1 [GLPG1690, reference compound]",465,464
CN(c1nc(-c2ccc(F)cc2)c(C#N)s1)c1c2c(nc3c(F)cc(N4CC5(CN(C(=O)C6(N)CCOC6)C5)C4)cc13)C(O)CC2 (stereo not shown) [Example E52],670,423
COC(C)(C)C(=O)N1CC2(C1)CN(c1cc(F)c3nc4c(c(N(C)c5nc(-c6ccc(F)cc6)c(C#N)s5)c3c1)CCC4O)C2 (stereo not shown) [Example E30],165,150
CN(c1nc(-c2ccc(F)cc2)c(C#N)s1)c1c2c(nc3c(F)cc(N4CCC5(CCN(CC(=O)N6CC(O)C6)CC5)C4)cc13)C(O)CC2 (stereo not shown) [Example E48],740,671
"Cc1cc(N2CC3(CN(C(=O)C(C)(C)O)C3)C2)nc2c(N(C)c3nc(-c4ccc(F)cc4)c(C#N)s3)c3c(nc12)[C@@H](O)CC3 (single isomer, unassigned) [Example E32-a]",323,331
CN(c1nc(-c2ccc(F)cc2)c(C#N)s1)c1c2c(nc3c(F)cc(N4CC5(CN(C(=O)C(C)(C)N)C5)C4)cc13)C(O)CC2 (stereo not shown) [Example E29],526,522
CN(c1nc(-c2ccc(F)cc2)c(C#N)s1)c1c2c(nc3ccc(N4CCN(CC(=O)N5CC(O)C5)CC4)nc13)COC2 [Example A13],194,206
CN(c1nc(-c2ccc(F)cc2)c(C#N)s1)c1c2c(nc3c(F)cc(N4CCN(CC(=O)N5CC[C@@H](O)C5)CC4)cc13)C(O)CC2 (stereo partly shown) [Example E40],,336
